The values below come from the supplement of paper PMC10307832.

Common to all, as to test: relative viability (nuclei count vs DMSO), 5 days (fraction); higher = more cells survive
Compound in the experiment “AZ505 + Bortezomib”: C1CCC(CC1)N(CCNCCC2=C3C(=C(C=C2)O)NC(=O)CO3)C(=O)CCNCCC4=CC(=C(C=C4)Cl)Cl [AZ505] + CC(C)C[C@H](NC(=O)[C@H](Cc1ccccc1)NC(=O)c1cnccn1)B(O)O [Bortezomib] (partner 0.002 µM)
The method in brief: (§1)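 Values are medians from duplicate plates. Each reflects relative viability, defined as the nuclei count of treated wells over that of vehicle wells. Lung cancer cell lines in 1536-well plates were pin-tool dosed one day after seeding with one drug alone or with a fixed anchor-drug dose plus five library-drug doses (not always all listed) in √10 steps, then fixed, stained and imaged at 4× after 5 days.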

Compound in the experiment “AZ505 + Pictilisib”: C1CCC(CC1)N(CCNCCC2=C3C(=C(C=C2)O)NC(=O)CO3)C(=O)CCNCCC4=CC(=C(C=C4)Cl)Cl [AZ505] + CS(=O)(=O)N1CCN(Cc2cc3nc(-c4cccc5[nH]ncc45)nc(N4CCOCC4)c3s2)CC1 [Pictilisib] (partner 1 µM)
The method in brief: as §1

Compound in the experiment “AZ505 + Olaparib”: C1CCC(CC1)N(CCNCCC2=C3C(=C(C=C2)O)NC(=O)CO3)C(=O)CCNCCC4=CC(=C(C=C4)Cl)Cl [AZ505] + O=C(c1cc(Cc2n[nH]c(=O)c3ccccc23)ccc1F)N1CCN(C(=O)C2CC2)CC1 [Olaparib] (partner 8 µM)
The method in brief: as §1

Compound in the experiment “Dactolisib + Dasatinib”: Cn1c(=O)n(-c2ccc(C(C)(C)C#N)cc2)c2c3cc(-c4cnc5ccccc5c4)ccc3ncc21 [Dactolisib] + Cc1nc(Nc2ncc(C(=O)Nc3c(C)cccc3Cl)s2)cc(N2CCN(CCO)CC2)n1 [Dasatinib] (partner 0.075 µM)
The method in brief:
as §1

As for A-427, the relative viability amounted to 0.928 with AZ505 + Bortezomib (first compound 0.08 µM); 0.978 with AZ505 + Bortezomib (first compound 0.253 µM); 1.03 with AZ505 + Bortezomib (first compound 0.8 µM); 0.917 with AZ505 + Bortezomib (first compound 2.53 µM); 0.997 in the experiment with AZ505 + Bortezomib (first compound 8 µM); 0.693 in the experiment with AZ505 + Pictilisib (first compound 0.08 µM). Besides, the relative viability was found to be 0.514 with AZ505 + Pictilisib (first compound 0.253 µM); 0.566 with AZ505 + Pictilisib (first compound 0.8 µM); 0.726 with AZ505 + Pictilisib (first compound 2.53 µM); 0.741 in the experiment with AZ505 + Pictilisib (first compound 8 µM); 0.765 in the experiment with AZ505 + Olaparib (first compound 0.08 µM); 0.704 with AZ505 + Olaparib (first compound 0.253 µM). For the same cell line, the relative viability amounted to 0.724 in the experiment with AZ505 + Olaparib (first compound 0.8 µM); 0.721 with AZ505 + Olaparib (first compound 2.53 µM); 0.732 in the experiment with AZ505 + Olaparib (first compound 8 µM); 0.841 in the experiment with Dactolisib + Dasatinib (first compound 0.002 µM); 0.645 with Dactolisib + Dasatinib (first compound 0.006325 µM); 0.668 with Dactolisib + Dasatinib (first compound 0.02 µM). Besides, the relative viability in the experiment with Dactolisib + Dasatinib (first compound 0.06325 µM) was determined as 0.436; in the experiment with Dactolisib + Dasatinib (first compound 0.2 µM) it was 0.352.

For the cell line EMC-BAC-2, the relative viability turned out to be 0.988 with AZ505 + Bortezomib (first compound 0.08 µM); 1.03 with AZ505 + Bortezomib (first compound 0.253 µM); 0.972 with AZ505 + Bortezomib (first compound 0.8 µM); 1.01 with AZ505 + Bortezomib (first compound 2.53 µM); 1.1 with AZ505 + Bortezomib (first compound 8 µM); 0.485 in the experiment with AZ505 + Pictilisib (first compound 0.08 µM). Further, the relative viability with AZ505 + Pictilisib (first compound 0.253 µM) was 0.523; with AZ505 + Pictilisib (first compound 0.8 µM), 0.505; with AZ505 + Pictilisib (first compound 2.53 µM) it was 0.471; in the experiment with AZ505 + Pictilisib (first compound 8 µM), 0.507; in the experiment with AZ505 + Olaparib (first compound 0.08 µM), 0.453; in the experiment with AZ505 + Olaparib (first compound 0.253 µM), 0.541. The relative viability with AZ505 + Olaparib (first compound 0.8 µM) stood at 0.487; with AZ505 + Olaparib (first compound 2.53 µM), 0.524; with AZ505 + Olaparib (first compound 8 µM), 0.437; with Dactolisib + Dasatinib (first compound 0.002 µM), 0.337; with Dactolisib + Dasatinib (first compound 0.006325 µM), 0.325; with Dactolisib + Dasatinib (first compound 0.02 µM) it was 0.342. Moreover, the relative viability turned out to be 0.209 with Dactolisib + Dasatinib (first compound 0.06325 µM) and 0.18 with Dactolisib + Dasatinib (first compound 0.2 µM).

NCI-H441: the relative viability with AZ505 + Bortezomib (first compound 0.08 µM) was 0.751; with AZ505 + Bortezomib (first compound 0.253 µM) it was 0.636; in the experiment with AZ505 + Bortezomib (first compound 0.8 µM) it was 0.598; in the experiment with AZ505 + Bortezomib (first compound 2.53 µM) it was 0.432; with AZ505 + Bortezomib (first compound 8 µM), 0.621; in the experiment with AZ505 + Pictilisib (first compound 0.08 µM), 0.427. Moreover, the relative viability in the experiment with AZ505 + Pictilisib (first compound 0.253 µM) was 0.548; with AZ505 + Pictilisib (first compound 0.8 µM) it was 0.458; with AZ505 + Pictilisib (first compound 2.53 µM) it was 0.546; in the experiment with AZ505 + Pictilisib (first compound 8 µM) it was 0.521; with AZ505 + Olaparib (first compound 0.08 µM), 0.527; with AZ505 + Olaparib (first compound 0.253 µM) it was 0.503. Moreover, the relative viability in the experiment with AZ505 + Olaparib (first compound 0.8 µM) worked out at 0.586; with AZ505 + Olaparib (first compound 2.53 µM), 0.57; with AZ505 + Olaparib (first compound 8 µM), 0.621; with Dactolisib + Dasatinib (first compound 0.002 µM), 0.729; in the experiment with Dactolisib + Dasatinib (first compound 0.006325 µM), 0.477; in the experiment with Dactolisib + Dasatinib (first compound 0.02 µM), 0.527. For the same cell line, the relative viability with Dactolisib + Dasatinib (first compound 0.06325 µM) was 0.357; with Dactolisib + Dasatinib (first compound 0.2 µM), 0.205.

As to LCLC-103H, the relative viability in the experiment with AZ505 + Bortezomib (first compound 0.08 µM) was 0.894; in the experiment with AZ505 + Bortezomib (first compound 0.253 µM), 1.05; with AZ505 + Bortezomib (first compound 0.8 µM), 1.01; with AZ505 + Bortezomib (first compound 2.53 µM), 1.02; in the experiment with AZ505 + Bortezomib (first compound 8 µM) it was 1.06; in the experiment with AZ505 + Pictilisib (first compound 0.08 µM), 0.627. Also, the relative viability with AZ505 + Pictilisib (first compound 0.253 µM) is 0.532; with AZ505 + Pictilisib (first compound 0.8 µM), 0.555; in the experiment with AZ505 + Pictilisib (first compound 2.53 µM), 0.657; in the experiment with AZ505 + Pictilisib (first compound 8 µM), 0.6; with AZ505 + Olaparib (first compound 0.08 µM), 0.677; with AZ505 + Olaparib (first compound 0.253 µM), 0.729. In addition, the relative viability with AZ505 + Olaparib (first compound 0.8 µM) was determined as 0.729; in the experiment with AZ505 + Olaparib (first compound 2.53 µM), 0.734; with AZ505 + Olaparib (first compound 8 µM) it was 0.717; with Dactolisib + Dasatinib (first compound 0.002 µM), 0.529; with Dactolisib + Dasatinib (first compound 0.006325 µM), 0.422; with Dactolisib + Dasatinib (first compound 0.02 µM), 0.45. In addition, the relative viability was 0.429 in the experiment with Dactolisib + Dasatinib (first compound 0.06325 µM) and 0.307 with Dactolisib + Dasatinib (first compound 0.2 µM).

On to HCC-827, for which the relative viability with AZ505 + Bortezomib (first compound 0.08 µM) came to 0.92; in the experiment with AZ505 + Bortezomib (first compound 0.253 µM) it was 0.957; with AZ505 + Bortezomib (first compound 0.8 µM) it was 1.01; in the experiment with AZ505 + Bortezomib (first compound 2.53 µM), 1; with AZ505 + Bortezomib (first compound 8 µM), 1.1; with AZ505 + Pictilisib (first compound 0.08 µM), 0.944. For the same cell line, the relative viability worked out at 0.963 with AZ505 + Pictilisib (first compound 0.253 µM); 1.1 in the experiment with AZ505 + Pictilisib (first compound 0.8 µM); 0.999 with AZ505 + Pictilisib (first compound 2.53 µM); 0.953 with AZ505 + Pictilisib (first compound 8 µM); 0.629 in the experiment with AZ505 + Olaparib (first compound 0.08 µM); 0.662 with AZ505 + Olaparib (first compound 0.253 µM). Also, the relative viability was 0.628 in the experiment with AZ505 + Olaparib (first compound 0.8 µM); 0.646 with AZ505 + Olaparib (first compound 2.53 µM); 0.711 with AZ505 + Olaparib (first compound 8 µM); 0.28 with Dactolisib + Dasatinib (first compound 0.002 µM); 0.331 with Dactolisib + Dasatinib (first compound 0.006325 µM); 0.301 with Dactolisib + Dasatinib (first compound 0.02 µM). Moreover, the relative viability with Dactolisib + Dasatinib (first compound 0.06325 µM) turned out to be 0.238; in the experiment with Dactolisib + Dasatinib (first compound 0.2 µM) it was 0.207.

On to NCI-H1355, for which the relative viability was 1.13 with AZ505 + Bortezomib (first compound 0.08 µM); 1.19 in the experiment with AZ505 + Bortezomib (first compound 0.253 µM); 1.16 in the experiment with AZ505 + Bortezomib (first compound 0.8 µM); 1.25 with AZ505 + Bortezomib (first compound 2.53 µM); 1.16 with AZ505 + Bortezomib (first compound 8 µM); 0.409 with AZ505 + Pictilisib (first compound 0.08 µM). For the same cell line, the relative viability was found to be 0.338 in the experiment with AZ505 + Pictilisib (first compound 0.253 µM); 0.428 with AZ505 + Pictilisib (first compound 0.8 µM); 0.321 in the experiment with AZ505 + Pictilisib (first compound 2.53 µM); 0.445 in the experiment with AZ505 + Pictilisib (first compound 8 µM); 0.719 with AZ505 + Olaparib (first compound 0.08 µM); 0.796 in the experiment with AZ505 + Olaparib (first compound 0.253 µM). The relative viability with AZ505 + Olaparib (first compound 0.8 µM) amounted to 0.729; in the experiment with AZ505 + Olaparib (first compound 2.53 µM), 0.734; with AZ505 + Olaparib (first compound 8 µM), 0.711; with Dactolisib + Dasatinib (first compound 0.002 µM), 0.806; in the experiment with Dactolisib + Dasatinib (first compound 0.006325 µM), 0.743; in the experiment with Dactolisib + Dasatinib (first compound 0.02 µM), 0.689. Besides, the relative viability with Dactolisib + Dasatinib (first compound 0.06325 µM) stood at 0.409; with Dactolisib + Dasatinib (first compound 0.2 µM), 0.218.

As for NCI-H1734, the relative viability with AZ505 + Bortezomib (first compound 0.08 µM) amounted to 0.78; with AZ505 + Bortezomib (first compound 0.253 µM), 0.978; with AZ505 + Bortezomib (first compound 0.8 µM), 0.976; in the experiment with AZ505 + Bortezomib (first compound 2.53 µM), 0.936; with AZ505 + Bortezomib (first compound 8 µM), 0.861; in the experiment with AZ505 + Pictilisib (first compound 0.08 µM), 0.384. The relative viability is 0.407 with AZ505 + Pictilisib (first compound 0.253 µM); 0.446 in the experiment with AZ505 + Pictilisib (first compound 0.8 µM); 0.44 in the experiment with AZ505 + Pictilisib (first compound 2.53 µM); 0.431 with AZ505 + Pictilisib (first compound 8 µM); 0.603 with AZ505 + Olaparib (first compound 0.08 µM); 0.673 with AZ505 + Olaparib (first compound 0.253 µM). In addition, the relative viability with AZ505 + Olaparib (first compound 0.8 µM) came out at 0.613; with AZ505 + Olaparib (first compound 2.53 µM), 0.63; with AZ505 + Olaparib (first compound 8 µM), 0.641; in the experiment with Dactolisib + Dasatinib (first compound 0.002 µM), 0.499; with Dactolisib + Dasatinib (first compound 0.006325 µM), 0.362; in the experiment with Dactolisib + Dasatinib (first compound 0.02 µM) it was 0.407. The results for the relative viability with Dactolisib + Dasatinib (first compound 0.06325 µM) and in the experiment with Dactolisib + Dasatinib (first compound 0.2 µM) were 0.2 and 0.162, respectively.
